According to the NIST ThermoML archive (doi:10.1021/je060271a):

Details: 323.15 K, Liquid, Vibrating tube method

CCCCCCCC(=O)OCC(COC(=O)CCCCCCC)(COC(=O)CCCCCCC)COC(=O)CCCCCCC [pentaerythritol tetraoctanoate]
Details	mass density [kg/m3]
7680.3 kPa	945.8
7700.7 kPa	945.8
7720.9 kPa	945.7
7748.8 kPa	945.9
7769.4 kPa	945.7
7790.4 kPa	945.9
7811.3 kPa	946
7832.2 kPa	945.9
7857.7 kPa	945.9
7878.8 kPa	945.8
7900.5 kPa	945.9
7922.1 kPa	946
7947.7 kPa	946
7968.9 kPa	945.8
7990.6 kPa	946
8017 kPa	946
8039.8 kPa	946
8061.6 kPa	946.2
8084.3 kPa	946.1
8107.1 kPa	946.1
8134 kPa	946.1
8156.6 kPa	946
8179.4 kPa	946.1
8206.5 kPa	946
8229.4 kPa	946.2
8252.6 kPa	946.2
8275.8 kPa	946.2
8303.6 kPa	946.2
8327.1 kPa	946.2
8355.7 kPa	946.2
8379.5 kPa	946.3
8404.2 kPa	946.3
8428.3 kPa	946.3
8452.5 kPa	946.3
8482 kPa	946.4
8506.8 kPa	946.2
8531.5 kPa	946.4
8560.6 kPa	946.4
8585.3 kPa	946.5
8610.8 kPa	946.4
8640.7 kPa	946.4
8666 kPa	946.4
8691.5 kPa	946.4
8722.7 kPa	946.4
8748.4 kPa	946.5
8774.8 kPa	946.4
8806.4 kPa	946.5
8832.8 kPa	946.4
8859.7 kPa	946.6
8886 kPa	946.5
8918.8 kPa	946.5
8945.9 kPa	946.6
8972.8 kPa	946.7
9006 kPa	946.7
9034.1 kPa	946.6
9062.8 kPa	946.7
9092.9 kPa	946.7
9121.3 kPa	946.8
9155.1 kPa	946.7
9183.5 kPa	946.9
9212.7 kPa	946.8
9247.8 kPa	946.8
9276.8 kPa	946.9
9311.6 kPa	946.9
9341.2 kPa	946.9
9371.1 kPa	946.9
9401 kPa	946.9
9437.9 kPa	946.9
9469.8 kPa	947
9503.2 kPa	946.9
9534 kPa	947.1
9570.9 kPa	946.9
9602.4 kPa	947
9633.9 kPa	947
9665.6 kPa	947.2
9704.2 kPa	947.1
9736 kPa	947.1
9774.4 kPa	947.2
9806.9 kPa	947.2
9834 kPa	947.1
9860.5 kPa	947.3
9901 kPa	947.3
9949.2 kPa	947.4
9984 kPa	947.3
10026 kPa	947.2
10059 kPa	947.3
10090 kPa	947.3
10128 kPa	947.3
10160 kPa	947.4
10192 kPa	947.5
10231 kPa	947.6
10264 kPa	947.5
10297 kPa	947.6
10337 kPa	947.5
10372 kPa	947.6
10405 kPa	947.5
10435 kPa	947.6
10467 kPa	947.6
10494 kPa	947.6
10520 kPa	947.7
10553 kPa	947.7
10580 kPa	947.7
10608 kPa	947.6
10643 kPa	947.8
10672 kPa	947.8
10695 kPa	947.7
10719 kPa	947.8
10739 kPa	947.8
10759 kPa	947.6
10779 kPa	947.8
10802 kPa	947.8
10822 kPa	947.8
10847 kPa	947.8
10867 kPa	947.8
10887 kPa	948
10911 kPa	947.9
10932 kPa	947.8
10948 kPa	947.9
10977 kPa	947.9
10997 kPa	948
11019 kPa	948.1
11040 kPa	948.1
11065 kPa	948
11086 kPa	948
11111 kPa	948
11132 kPa	948.1
11153 kPa	948.1
11175 kPa	948.1
11200 kPa	948.1
11222 kPa	948.1
11248 kPa	948.1
11270 kPa	948.1
11292 kPa	948.1
11319 kPa	948.1
11341 kPa	948.1
11362 kPa	948.1
11384 kPa	948.3
11411 kPa	948.3
11433 kPa	948.2
11460 kPa	948.2
11483 kPa	948.3
11506 kPa	948.3
11533 kPa	948.3
11555 kPa	948.4
11579 kPa	948.2
11607 kPa	948.3
11626 kPa	948.3
11654 kPa	948.4
11678 kPa	948.2
11701 kPa	948.4
11725 kPa	948.5
11744 kPa	948.5
11768 kPa	948.4
11792 kPa	948.5
11831 kPa	948.4
11855 kPa	948.5
11880 kPa	948.5
11909 kPa	948.5
11935 kPa	948.6
11961 kPa	948.6
11986 kPa	948.6
12010 kPa	948.7
12041 kPa	948.6
12065 kPa	948.7
12095 kPa	948.6
12120 kPa	948.8
12146 kPa	948.6
12176 kPa	948.6
12202 kPa	948.7
12228 kPa	948.6
12255 kPa	948.7
12286 kPa	948.8
12313 kPa	948.8
12339 kPa	948.9
12456 kPa	948.9
12482 kPa	948.9
12510 kPa	948.9
12537 kPa	948.9
12570 kPa	949
12598 kPa	948.9
12626 kPa	949
12660 kPa	949
12688 kPa	948.9
12716 kPa	949
12744 kPa	949
12777 kPa	949
12805 kPa	949.1
12839 kPa	949
12868 kPa	949.1
12897 kPa	949.2
12932 kPa	949.2
12961 kPa	949.2
12990 kPa	949.1
13026 kPa	949.2
13056 kPa	949.3
13080 kPa	949.2
13104 kPa	949.2
13134 kPa	949.3
13170 kPa	949.2
13212 kPa	949.4
13248 kPa	949.4
13279 kPa	949.3
13310 kPa	949.4
13347 kPa	949.3
13378 kPa	949.4
13409 kPa	949.6
13447 kPa	949.6
13479 kPa	949.6
13511 kPa	949.5
13543 kPa	949.5
13581 kPa	949.7
13614 kPa	949.7
13652 kPa	949.6
13685 kPa	949.7
13717 kPa	949.6
13756 kPa	949.7
13790 kPa	949.6
13823 kPa	949.7
13863 kPa	949.7
13897 kPa	949.9
13932 kPa	949.7
13965 kPa	949.8
14007 kPa	949.9
14041 kPa	949.7
14076 kPa	949.9
14118 kPa	950
14152 kPa	949.9
14187 kPa	950
14230 kPa	949.9
14266 kPa	950
14301 kPa	950.1
14345 kPa	950.1
14376 kPa	950.2
14414 kPa	950.2
14452 kPa	950.1
14505 kPa	950.1
14544 kPa	950.2
14573 kPa	950.2
14617 kPa	950.1
14647 kPa	950.2
14671 kPa	950.2
14707 kPa	950.5
14738 kPa	950.3
14780 kPa	950.3
14812 kPa	950.5
14846 kPa	950.5
14877 kPa	950.3
14909 kPa	950.4
14947 kPa	950.5
14979 kPa	950.4
15012 kPa	950.5
15052 kPa	950.5
15085 kPa	950.5
15114 kPa	950.5
15143 kPa	950.5
15167 kPa	950.6
15191 kPa	950.6
15220 kPa	950.7
15246 kPa	950.5
15270 kPa	950.6
15299 kPa	950.6
15324 kPa	950.7
15350 kPa	950.7
15374 kPa	950.8
15404 kPa	950.8
15430 kPa	950.7
15454 kPa	950.8
15485 kPa	950.7
15510 kPa	950.9
15541 kPa	950.8
15567 kPa	950.8
15594 kPa	950.8
15619 kPa	950.8
15650 kPa	950.8
15677 kPa	950.9
15702 kPa	950.9
15734 kPa	950.9
15761 kPa	950.9
15787 kPa	950.9
15818 kPa	951
15845 kPa	951.2
15872 kPa	951
15903 kPa	951.1
15931 kPa	951.1
15954 kPa	951
15980 kPa	951.1
16008 kPa	951.1
16046 kPa	951.2
16073 kPa	951.1
16106 kPa	951.3
16134 kPa	951.1
16161 kPa	951.3
16194 kPa	951.1
16222 kPa	951.3
16245 kPa	951.2
16273 kPa	951.4
